What was measured:
[1] = molecular target: T1, purified rat liver FBP (fructose-1,6-bisphosphatase) (Rattus norvegicus, UniProt P19112); experiment: inhibition of fructose-1,6-bisphosphatase (FBP), spectrophotometric assay; type: biochemical; conditions: pH 7.4, 30° C., 0.02 mM fructose-1,6-bis-phosphate
T1 construct: purified rat liver FBP; from tissue; host or cells: rat liver
T1 sequence (P19112 2-363 limits assumed): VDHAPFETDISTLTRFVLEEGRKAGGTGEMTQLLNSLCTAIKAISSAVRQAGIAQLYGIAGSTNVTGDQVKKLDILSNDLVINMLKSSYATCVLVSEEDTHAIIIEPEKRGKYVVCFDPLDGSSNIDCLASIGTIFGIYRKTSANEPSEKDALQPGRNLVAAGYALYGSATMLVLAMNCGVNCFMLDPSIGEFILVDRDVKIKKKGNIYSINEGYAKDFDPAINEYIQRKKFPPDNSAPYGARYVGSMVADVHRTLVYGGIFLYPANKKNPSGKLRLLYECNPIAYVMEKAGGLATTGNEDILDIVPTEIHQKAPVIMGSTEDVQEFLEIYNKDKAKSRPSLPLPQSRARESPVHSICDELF
Method: (§1) The novel compounds of this invention were tested for their ability to stimulate the enzyme 6-phosphofructo-1-kinase ("PFK") and for their ability to inhibit the enzyme fructose-1,6-bisphosphatase ("FBP") using the procedures described below.
Effects on the activity of FBP were determined using a spectrophotometric assay. The assay mixture contained: 100 mM tris(hydroxymethyl)aminomethane, hydrochloride ("TRIS-HCl", pH 7.4); 2.5 mM beta-mercaptoethanol; 2 mM magnesium chloride; 0.05 mM EDTA; 0.2 mM nicotinamide adenine dinucleotide phosphate ("NADP"); 10 U phosphoglucose isomerase; 5 U glucose-6-phosphate dehydrogenase; 0.02U of purified rat liver FBP; and various concentrations of the test compound, all in a final volume of 1 ml. The mixture was preincubated for 3 minutes at 30° C. and then the reaction was initiated with 0.02 mM fructose-1,6-bis-phosphate. The rate of increase in absorbance at 340 nm was measured at 30° C. with a recording spectrophotometer

[2] = molecular target: T2, purified rat liver 6-phosphofructo-1-kinase (Rattus norvegicus, UniProt P30835); experiment: stimulation of 6-phosphofructo-1-kinase (PFK), aldolase-coupled spectrophotometric assay; type: biochemical; conditions: pH 7.3, 30° C., 1 mM ATP, 0.2 mM fructose-6-phosphate, read-out: PFK ED50
T2 construct: purified rat liver 6-phosphofructo-1-kinase; from tissue; host or cells: rat liver
T2 sequence (P30835 2-780 limits assumed): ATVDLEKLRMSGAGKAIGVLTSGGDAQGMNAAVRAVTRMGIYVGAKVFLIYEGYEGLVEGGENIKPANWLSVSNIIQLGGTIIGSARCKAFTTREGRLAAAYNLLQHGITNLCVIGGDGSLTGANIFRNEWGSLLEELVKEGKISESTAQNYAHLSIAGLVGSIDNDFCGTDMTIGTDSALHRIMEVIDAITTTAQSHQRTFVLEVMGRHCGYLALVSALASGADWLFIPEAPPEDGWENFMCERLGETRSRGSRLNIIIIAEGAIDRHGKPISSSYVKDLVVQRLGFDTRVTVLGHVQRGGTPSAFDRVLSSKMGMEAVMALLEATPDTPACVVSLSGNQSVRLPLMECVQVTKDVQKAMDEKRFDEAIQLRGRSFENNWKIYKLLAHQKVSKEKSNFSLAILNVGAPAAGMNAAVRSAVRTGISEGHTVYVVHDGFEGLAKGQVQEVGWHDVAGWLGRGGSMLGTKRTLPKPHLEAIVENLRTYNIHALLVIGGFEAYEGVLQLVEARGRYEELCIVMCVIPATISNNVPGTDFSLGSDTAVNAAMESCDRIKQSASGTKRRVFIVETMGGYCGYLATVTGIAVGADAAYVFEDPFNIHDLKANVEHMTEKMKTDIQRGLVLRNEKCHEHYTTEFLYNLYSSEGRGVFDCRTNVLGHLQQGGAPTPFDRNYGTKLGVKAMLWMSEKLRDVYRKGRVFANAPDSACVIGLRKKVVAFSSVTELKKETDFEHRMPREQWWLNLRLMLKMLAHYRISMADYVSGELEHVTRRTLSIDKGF
Method: as §1
Effects on the activity of PFK were determined using an aldolase-coupled, spectrophotometric assay. The assay mixture contained: 50 mM N-tris(hydroxymethyl) methyl-2-aminoethanesulfonic acid, hydrochloride ("TES-HCl", pH 7.3); 1 mM ethylenediaminetetraacetic acid ("EDTA"); 6 mM magnesium chloride; 2.5 mM dithiothreitol; 0.165 mM nicotinamide adenine dinucleotide ("NADH"); 1 mM adenosine triphosphate ("ATP"); 0.04U aldolase; 0.4U triose phosphate isomerase; 1.5U alpha-glycerolphosphate dehydrogenase; 0.lU of purified rat liver 6-phosphofructo-1-kinase; and various concentrations of the test compound, all in a final volume of 1 ml. The mixture was preincubated for 3 minutes at 30° C. and then the reaction was initiated with 0.2 mM fructose-6-phosphate. The rate of decrease in absorbance at 340 nm was measured at 30° C. with a recording spectrophotometer.

SMILES	IC50 [1]	EC50 [2]
O=P(O)(O)OC[C@H]1O[C@H](C(O)P(=O)(O)O)[C@@H](O)[C@@H]1O (stereo partly drawn) [[1R(and/or 1S)]-2,5-Anhydro-1-C-phosphono-D-mannitol, 6-(dihydrogen phosphate)]	44 µM	13 µM
O=P(O)(O)OC[C@H]1O[C@](CO)(C(O)P(=O)(O)O)[C@@H](O)[C@@H]1O (stereo partly drawn) [2,5-Anhydro-2-C-(hydroxyphosphonomethyl)-D-glucitol, 6-(dihydrogen phosphate)]	393 µM	20 µM
O=P(O)(O)OC[C@H]1O[C@@](CO)(C(F)P(=O)(O)O)[C@@H](O)[C@@H]1O (single isomer, unassigned) [2,5-Anhydro-1-deoxy-1-fluoro-2-(hydroxymethyl)-1-phosphono-D-glucitol, 6-(dihydrogen phosphate)]	110 µM	0.7 µM
O=P(O)(O)OC[C@H]1O[C@H](C(F)P(=O)(O)O)[C@@H](O)[C@@H]1O (stereo partly drawn) [2,5-Anhydro-1-deoxy-1-fluoro-1-phosphono-D-mannitol, 6-(dihydrogen phosphate)]	114 µM	22 µM
O=P(O)(O)OC[C@H]1O[C@](CO)(C(F)P(=O)(O)O)[C@@H](O)[C@@H]1O (stereo partly drawn) [2,5-Anhydro-2-C-(fluorophosphonomethyl)-D-glucitol, 6-(dihydrogen phosphate)]	378 µM	1.3 µM
O=P(O)(O)OC[C@H]1O[C@H](CC(F)(F)P(=O)(O)O)[C@@H](O)[C@@H]1O [3,6-Anhydro-1,2-dideoxy-1,1-difluoro-1-phosphono-D-manno-heptitol, 7-(dihydrogen phosphate)]	27 µM	3 µM
O=P(O)(O)OC[C@H]1O[C@H](C(F)(F)P(=O)(O)O)[C@@H](O)[C@@H]1O [2,5-Anhydro-1-deoxy-1,1-difluoro-1-phosphono-D-mannitol, 6-(dihydrogen phosphate)]	226 µM	14 µM
O=P(O)(O)OC[C@H]1O[C@H](CC(F)P(=O)(O)O)[C@@H](O)[C@@H]1O (stereo partly drawn) [[1R(and 1S)]-3,6-Anhydro-1,2-dideoxy-1-fluoro-1-phosphono-D-manno-heptitol, 7-(dihydrogen phosphate)]	61 µM	1.3 µM
O=P(O)(O)OC[C@H]1O[C@H](CC(O)P(=O)(O)O)[C@@H](O)[C@@H]1O (stereo partly drawn) [[1R(and/or 1S)]-3,6-Anhydro-2-deoxy-1-phosphono-D-manno-heptitol, 7-(dihydrogen phosphate)]	62 µM	1 µM
O=P(O)(O)OC[C@H]1OC(C(F)P(=O)(O)O)[C@@H](O)[C@@H]1O (mixture of isomers) [2,5-Anhydro-1-deoxy-1-fluoro-1-phosphono-D-glucitol and D-mannitol, 6-(dihydrogen phosphate) mixture (70:30)]	54 µM	10 µM

From patent publication US4943629A, “Antidiabetic alpha-substituted phosphonates” (American Cyanamid Company, priority 1988, dated 1990)
